Assay results reported in US7521479B2 (priority 2001, dated 2009).
Counter-ions that a name gives are not always drawn.

Assays:
[1] = in vivo; cited from earlier work
scrapie strain ME7 = type: in vivo, C57BL mice
Aβ1-40 = Aβ1-40 (Homo sapiens, UniProt P05067); details: cited from earlier work
prions = details: rodents, administered prophylactically; cited from earlier work
PrP^Sc = PrP^Sc (Mus musculus, UniProt P04925); details: neuroblastoma cell line permanently infected with prions; cited from earlier work
[2] = group d, spleens, at time of death

Aβ1-40, sequence (P05067 672-711 limits assumed): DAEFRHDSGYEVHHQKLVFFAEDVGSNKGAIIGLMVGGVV
PrP^Sc, sequence (P04925 23-230 limits assumed): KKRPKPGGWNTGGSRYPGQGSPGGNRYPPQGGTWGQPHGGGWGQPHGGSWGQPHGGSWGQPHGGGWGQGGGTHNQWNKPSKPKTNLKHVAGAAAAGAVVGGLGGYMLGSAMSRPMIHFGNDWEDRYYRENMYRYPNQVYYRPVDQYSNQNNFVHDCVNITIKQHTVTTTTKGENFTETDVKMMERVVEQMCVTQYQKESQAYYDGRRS

N=C(N)N [guanidine hydrochloride]
side effects [1]: bone marrow depression to renal problems to cardiac arrhythmia | PrP^Sc titers at the final endpoint versus group b (scrapie strain ME7; [2]): lower PrP^Sc titers | infectivity at the final endpoint versus group b (scrapie strain ME7; [2]): lower infectivity | survival (time of death) of treated infected mice (scrapie strain ME7; group d: ME7 i.p., oral treatment from 70 days post-infection, 15 then 40 mg/kg/day): live as long as the mice in group a | PrP^Sc level with treatment from one day post inoculation (scrapie strain ME7; group f, prophylactic-like treatment): negligible or not much higher than that provided in the initial inoculum | overall efficacy in scrapie (scrapie strain ME7; overall results): effective in the treatment of scrapie

Oc1ccc(O)c2ccccc12 [1,4-dihydroxynaphthalene]
inhibition of Aβ1-40 aggregation and neurotoxicity (Aβ1-40): inhibit Aβ1-40 aggregation and neurotoxicity at comparable molar concentrations to rifampicin

Nc1c(/N=N/c2ccc(-c3ccc(/N=N/c4cc(S(=O)(=O)O)c5ccccc5c4N)cc3)cc2)cc(S(=O)(=O)O)c2ccccc12 [Congo red]
disease onset (prions): delay disease onset | accumulation of PrP^Sc (PrP^Sc): reduce the accumulation of PrP^Sc

Oc1ccc(O)cc1 [Hydroquinone]
inhibition of Aβ1-40 aggregation and neurotoxicity (Aβ1-40): inhibit Aβ1-40 aggregation and neurotoxicity at comparable molar concentrations to rifampicin
